In patent publication US11926641B2, “Phosphonamidate butyrophilin ligands” (UNIVERSITY OF IOWA RESEARCH FOUNDATION, priority 2018, dated 2024):
Like-named read-outs stand apart in the source and are kept apart here. Blank lines part the entries; values can stand above or below the compound they belong to.

Columns and labels:
[1] = Stability in 50% pooled human plasma in PBS (LCMS); type: in vitro ADME
Experimental: Stability studies. Pooled human plasma was diluted to 50% with phosphate buffered saline at pH 7.5. Test compounds were added at a final concentration of 100 μM in a volume of 100 μL. Compounds were incubated for various times as indicated in the text, then extracted with 300 μL of LCMS grade acetonitrile and vigorous mixing. Insoluble debris was pelleted by centrifugation at 10,000 rcf for 2 minutes. 10 μL of the extract was evaluated by LCMS with a Waters Synapt G2-Si Mass Spectrometer in positive mode using a gradient of water and acetonitrile and a C18 column. The gradient started at 25% acetonitrile then increased to 80% acetonitrile over 9 minutes and held there for 1 minute before re-equilibration. […] The integrated values of these peaks were compared to those of t=0 minutes in plasma for each test compound and expressed as a fraction of the initial compound that was remaining at a given time point.

Vγ9Vδ2 T cells = experiment: ELISA for interferon γ: Vγ9Vδ2 T cells mixed with compound-loaded K562 cells; type: cell-based; settings: Homo sapiens; K562 cells loaded for 4 hours with test compound; 3:1 effector:target; 20 hours; read-out: EC50 [μM] (95% CI), interferon γ production by Vγ9Vδ2 T cells
Experimental: ELISA for interferon γ. Interferon γ was measured by ELISA as previously described and according to manufacturer's directions (see Kilcollins, A. M., et al., J. Immunol. 2016, 197, 419-428; and Shippy, R. R., et al., J Med. Chem. 2017, 60, 2373-2382. Briefly, K562 cells were treated with test compounds for 4 hours, washed, then mixed with V79Vδ2 T cells that had been purified by negative selection. Each well contained a 3:1 effector: target ratio in 200 μL. After 20 hours, the concentration of interferon γ in the supernatant was determined. Data for representative compounds of the invention is shown in Table 2 (see FIG. 4).

in vitro = type: cell-based; settings: human
Experimental: Cell viability. Viability assays were performed using K562 cells with various concentrations of test compounds. K562 cells (0.5×10^4 cells in 100 μL of RPMI media) were distributed into each well of a 96-well plate. Phosphonamidates were added for 72 hours, during the last 2 hours the cell-QB reagent was added, following which signals were quantified with a fluorescence plate reader. Viable cells were expressed as a percentage of untreated control cells after subtraction of a media-only blank.

human Vγ9Vδ2 T cells = experiment: Expansion of Vγ9Vδ2 T cells from peripheral blood mononuclear cells; type: cell-based; settings: ratio of expansion EC50 values
Experimental: Expansion of Vγ9Vδ2 T cells. […] Negative controls contained cells with interleukin 2 in the absence of test compounds. […] All experiments were performed at least three times using cells from at least two different donors.

[2] = cited from earlier work
[3] = 72 hour, read-out: IC50 [μM], cytotoxicity against K562 cells

Compound: COC(=O)CNP(=O)(CC/C=C(\C)CO)Oc1ccccc1 (centres unmarked) [Compound 1, Methyl 2-[[[(E)-5-hydroxy-4-methyl-pent-3-enyl]-phenoxy-phosphoryl]amino]acetate]
t1/2 [1]: >24 h
EC50 (Vγ9Vδ2 T cells): 0.46 µM
IC50 at 72 h (in vitro; [3]): > 100 µM
Fold difference vs cmpd 10 (human Vγ9Vδ2 T cells): 2700
Fold difference vs cmpd 11 (human Vγ9Vδ2 T cells): 3.6

IC50 at 72 h (in vitro): > 100 µM
Compound: Oc1cccc2ccccc12 [Compound 1-naphthol, 1-naphthol, reference compound]

Compound: CCOC(=O)CNP(=O)(CC/C=C(\C)CO)Oc1ccccc1 (centres unmarked) [Compound 2, Ethyl 2-[[[(E)-5-hydroxy-4-methyl-pent-3-enyl]-phenoxy-phosphoryl]amino]acetate]
EC50 (Vγ9Vδ2 T cells): 0.17 µM
IC50 at 72 h (in vitro; [3]): > 100 µM

IC50 at 72 h (in vitro): > 100 µM
Compound: Oc1ccc2ccccc2c1 [Compound 2-naphthol, 2-naphthol, reference compound]

Compound: C/C(=C\CCP(=O)(NCC(=O)OC(C)C)Oc1ccccc1)CO (centres unmarked) [Compound 3, Isopropyl 2-[[[(E)-5-hydroxy-4-methyl-pent-3-enyl]-phenoxy-phosphoryl]amino]acetate]
t1/2 [1]: >24 h
EC50 (Vγ9Vδ2 T cells): 0.74 µM
IC50 at 72 h (in vitro; [3]): 23 µM
Fold difference vs cmpd 10 (human Vγ9Vδ2 T cells): 3600
Fold difference vs cmpd 11 (human Vγ9Vδ2 T cells): 4.9

Compound: COC(=O)CNP(=O)(CC/C=C(\C)CO)Oc1cccc2ccccc12 (centres unmarked) [Compound 4, Methyl 2-[[[(E)-5-hydroxy-4-methyl-pent-3-enyl]-(1-naphthyloxy)phosphoryl]amino]acetate]
t1/2 [1]: >24 h
EC50 (Vγ9Vδ2 T cells): 0.13 µM
IC50 at 72 h (in vitro; [3]): 40 µM
Fold difference vs cmpd 10 (human Vγ9Vδ2 T cells): 9100
Fold difference vs cmpd 11 (human Vγ9Vδ2 T cells): 12

Compound: CCOC(=O)CNP(=O)(CC/C=C(\C)CO)Oc1cccc2ccccc12 (centres unmarked) [Compound 5, Ethyl 2-[[[(E)-5-hydroxy-4-methyl-pent-3-enyl]-(1-naphthyloxy)phosphoryl]amino]acetate]
t1/2 [1]: >24 h
EC50 (Vγ9Vδ2 T cells): 0.062 µM
IC50 at 72 h (in vitro; [3]): 24 µM
Fold difference vs cmpd 10 (human Vγ9Vδ2 T cells): 11000
Fold difference vs cmpd 11 (human Vγ9Vδ2 T cells): 15

Compound: C/C(=C\CCP(=O)(NCC(=O)OC(C)C)Oc1cccc2ccccc12)CO (centres unmarked) [Compound 6, Isopropyl 2-[[[(E)-5-hydroxy-4-methyl-pent-3-enyl]-(1-naphthyloxy)phosphoryl]amino]acetate]
t1/2 [1]: >24 h
EC50 (Vγ9Vδ2 T cells): 0.29 µM
IC50 at 72 h (in vitro; [3]): > 100 µM
Fold difference vs cmpd 10 (human Vγ9Vδ2 T cells): 12000
Fold difference vs cmpd 11 (human Vγ9Vδ2 T cells): 16

Compound: COC(=O)CNP(=O)(CC/C=C(\C)CO)Oc1ccc2ccccc2c1 (centres unmarked) [Compound 7, Methyl 2-[[[(E)-5-hydroxy-4-methyl-pent-3-enyl]-(2-naphthyloxy)phosphoryl]amino]acetate]
t1/2 [1]: >24 h
EC50 (Vγ9Vδ2 T cells): 0.12 µM
IC50 at 72 h (in vitro; [3]): > 100 µM
Fold difference vs cmpd 10 (human Vγ9Vδ2 T cells): 6900
Fold difference vs cmpd 11 (human Vγ9Vδ2 T cells): 9.3

Compound: CCOC(=O)CNP(=O)(CC/C=C(\C)CO)Oc1ccc2ccccc2c1 (centres unmarked) [Compound 8, Ethyl 2-[[[(E)-5-hydroxy-4-methyl-pent-3-enyl]-(2-naphthyloxy)phosphoryl]amino]acetate]
t1/2 [1]: >24 h
EC50 (Vγ9Vδ2 T cells): 0.093 µM
IC50 at 72 h (in vitro; [3]): 28 µM
Fold difference vs cmpd 10 (human Vγ9Vδ2 T cells): 7500
Fold difference vs cmpd 11 (human Vγ9Vδ2 T cells): 10

Compound: C/C(=C\CCP(=O)(NCC(=O)OC(C)C)Oc1ccc2ccccc2c1)CO (centres unmarked) [Compound 9, Isopropyl 2-[[[(E)-5-hydroxy-4-methyl-pent-3-enyl]-(2-naphthyloxy)phosphoryl]amino]acetate]
t1/2 [1]: >24 h
EC50 (Vγ9Vδ2 T cells): 0.21 µM
IC50 at 72 h (in vitro; [3]): > 100 µM
Fold difference vs cmpd 10 (human Vγ9Vδ2 T cells): 4900
Fold difference vs cmpd 11 (human Vγ9Vδ2 T cells): 6.6

Compound: C/C(=C\CCP(=O)(OCOC(=O)C(C)(C)C)OCOC(=O)C(C)(C)C)CO [Compound 104, reference compound]
t1/2 [1]: 0.14 h

Compound: C/C(=C\COP(=O)(O)OP(=O)(O)O)CO [HMBPP]
stability in plasma [2]: not stable in plasma

Compound: Oc1ccccc1 [Phenol, reference compound]
IC50 (in vitro): > 100000 nM
